From ChEMBL document CHEMBL3044970, “Isoniazid: the magic molecule” (2012) come the findings set out here.

SMILES strings stand for the structures. Converted amounts (≈) assume the structure as drawn.

Holding throughout (type): functional
Assay [1] relates to Mycobacterium tuberculosis. Briefly: Antimicrobial activity against INH-resistant Mycobacterium tuberculosis by agar dilution method relative to isonicotinoyl hydrazide. A general note: In agar dilution the substance is mixed into plates at graded concentrations.
Assay [2] deals with Mycobacterium tuberculosis. Description: Antimicrobial activity against INH-resistant Mycobacterium tuberculosis.
For assay [3], the system named is Mycobacterium tuberculosis. Description: Antimicrobial activity against drug-resistant Mycobacterium tuberculosis infected in macrophages.
For assay [4], the system named is Mycobacterium tuberculosis. Description: Ratio of INH MIC to compound MIC for INH-resistant Mycobacterium tuberculosis.
Assay [5] can be described thus: Selectivity ratio of MIC for Mycobacterium tuberculosis H37Rv to MIC for INH-resistant Mycobacterium tuberculosis clinical isolate.

Take `O=C(NNC(=S)Nc1ccccc1C(F)(F)F)c1ccncc1`: the Ratio in assay [1] stood at 157. Moreover, the MIC in assay [2] was 0.58 µM (≈ 0.197 µg/mL).
Turning to `C/C(=N\NC(=O)c1ccncc1)c1cccc(F)c1`, the MIC in assay [3] was below 0.05 µg/mL.
Regarding `COc1cc(C2=NN(C(=O)c3ccncc3)C(c3ccc(O)cc3)C2)ccc1OCC(=O)O` (stereo unspecified), the Ratio in assay [4] amounted to 78. Further, in assay [2], the MIC turned out to be 0.12 µM (≈ 0.0537 µg/mL).
As to `O=C(c1ccncc1)N1N=C(c2ccco2)CC1(O)C(F)(F)F` (stereo unspecified), in assay [5], the Selectivity ratio is 2.
